Measured values published in paper PMC11742080, “Decavanadate Compound Displays In Vitro and In Vivo Antitumor Effect on Melanoma Models” (Bioinorganic Chemistry and Applications, 2025).
Like-named read-outs stand apart in the source and are kept apart here.

How the values were obtained:
[1] = system: allograft model of B16-F10 cells in mice; design: method as in PMID 29407869, PMID 6722991; details: cited from earlier work
[2] = system: A375 human melanoma cell; design: method as in PMID 33132760; details: A375, 24 h treatment, cited from earlier work
[3] = system: UACC-62 human melanoma cells; details: UACC-62, at 5 μM; cited from earlier work
[4] = system: COLO829 melanoma cell; design: method as in PMID 32967177; details: read-out: IC50, cell proliferation; cited from earlier work
[5] = system: IGR37 human melanoma cells; experiment: MTT cell viability assay, IGR37; format: cell-based
Protocol: (§1) The MTT assay was first described as a sensitive, quantitative, and reliable colorimetric assay to measure the viability, proliferation, and activation of cells. Cell viability was assessed at 24 and 72 h of treatment to evaluate cytotoxicity and the effect on cell proliferation of the decavanadate compound, respectively. The concentrations of the decavanadate compound have been determined by weighing the compound in its crystal form and then solubilizing it in distilled water.
(§2) All cell lines were seeded in 96-well plates (Nunc, Roskilde, Denmark) at a density of 10^4 cells per well and were incubated overnight, before treatment with different concentrations of the decavanadate compound. After 24 or 72 h of treatment, fresh media solution containing MTT at 0.5 mg/mL was added to cells and incubated for 3 h at 37°C. The formed formazan crystals were then dissolved in DMSO, and the absorbance was measured at 560 nm using a BioTek EON Microplate Spectrophotometer (Fisher Scientific). Cell viability was expressed as a percentage of the viable cell number of the untreated cells (control [CTR]).
(§3) The concentration of the decavanadate compound required for 50% growth inhibition (IC50 value) was estimated as resulting in a 50% decrease in absorbance, compared to the CTR.

[6] = system: IGR39 human melanoma cells; experiment: MTT cell viability assay, IGR39; format: cell-based
Protocol: as §1, §2, §3

[7] = system: human SK-MEL-28 melanoma; details: cited from earlier work
[8] = system: murine B16-F10 melanoma cells; details: cited from earlier work
[9] = system: normal human keratinocyte cells (HaCaT); details: cited from earlier work
[10] = system: skin papillomas caused by the injection of DMBA and croton oil; design: method as in PMID 28010928; details: 5 mg/kg; cited from earlier work
[11] = system: IGR39 cells; details: IGR39 proliferation; read-out: IC50, antiproliferative effect on IGR39; cited from earlier work

O=S(=O)([O-])[O-].[O]=[V+2] [vanadyl sulfate]
Tumor size and incidence [1]: significantly decreased tumor size and their incidence

C[C@@H]1O[C@@H](OC[C@H]2O[C@@H](Oc3c(-c4ccc(O)c(O)c4)oc4cc(O)cc(O)c4c3=O)[C@H](O)[C@@H](O)[C@@H]2O)[C@H](O)[C@H](O)[C@H]1O [rutoside]
IC50, cell viability [2]: about 100 μg/mL | IC50 ([2]; read-out: IC50, cell viability): ~163 µM

metformin–decavanadate [Metf-V10]
Inhibition of proliferation [3]: 80%

C[C@H]1c2cccc(O)c2C(=O)C2=C(O)[C@]3(O)C(=O)C(C(N)=O)=C(O)[C@@H](N(C)C)[C@@H]3[C@@H](O)[C@@H]21 [doxycycline]
IC50 [4]: 16.2 µM

N.N.[Cl][Pt][Cl] [Cisplatin, cisplatin]
IC50 ([5]; IGR37, 24 h treatment): 26.5 µM | IC50, cell viability ([5]; IGR37, 24 h treatment): 8 µg/mL | IC50 ([5]; IGR37, 72 h treatment): 3 µM | IC50, cell viability ([5]; IGR37, 72 h treatment): 0.9 µg/mL | IC50 ([6]; IGR39, 24 h treatment): 83 µM | IC50, cell viability ([6]; IGR39, 24 h treatment): 25 µg/mL | IC50 ([6]; IGR39, 72 h treatment): 12.5 µM | IC50, cell viability ([6]; IGR39, 72 h treatment): 3.8 µg/mL | IC50 ([7]; SKMEL28, 24 h): > 12.5 µM | IC50 ([7]; SKMEL28, 72 h): 9.5 µM | IC50 ([8]; B16-F10, 24 h): 19.5 µM | IC50 ([8]; B16-F10, 72 h): 10 µM | IC50 ([9]; HaCaT, 24 h): 23.9 µM | IC50 ([9]; HaCaT, 72 h): 23.9 µM | IC50 ([9]; keratinocyte cell line, 'was reported', no reference printed in the abstract): 23.9 µM

[O]=[V]([O-])([O-])[O-] [orthovanadate]
Incidence of skin papillomas [10]: partially inhibited the incidence of skin papillomas

(NH4)4Li2V10O2810H2O
IC50 [11]: 9.8 µM

Mg(H2O)6(C4N2H7)4V10O28·4H2O
IC50 [11]: 2 µM

(C4N2H7)6(C4N2H6)2V10O28
IC50 [11]: 7 µM

[O]=[V]([O-])([O-])[O-] [vanadate]
Tumor size and incidence [1]: significantly decreased tumor size and their incidence

CN(C)c1ccc(O)c2c1C[C@H]1C[C@H]3[C@H](N(C)C)C(O)=C(C(N)=O)C(=O)[C@@]3(O)C(O)=C1C2=O [Minocycline]
IC50 [4]: 13.9 µM
